{"source": "patent US8074906B2", "about": "“Process for milling and preparing powders and compositions produced thereby” (Nanotherapeutics, Inc., priority 2005, dated 2011)", "key": {"[1]": {"experiment": "particle size by Coulter DELSA 440", "type": "physicochemical", "from_the_text": "Oxcarbazepine, an antiepileptic drug marketed as Trileptal® by Novartis, is a white crystalline powder practically insoluble in water. Oxcarbazepine (100%) was milled in 1 kg batches according to the method described in EXAMPLE 1.\n[…]"}, "[2]": {"experiment": "moisture uptake (weight change) at room temperature and humidity", "type": "physicochemical", "conditions": "lyophilized simple salt, 24 hours", "protocol": "Initial Zn-DTPA simple salt solutions were prepared and lyophilized, producing a hygroscopic mixture not stable at room temperature and humidity (>10% moisture uptake in 24 hours). Zn-DTPA (trisodium zinc diethylenetriaminepentaacetate) were then mixed with (1) hydroxyl-propyl-methylcellulose (HPMC, K100M, Dow), (2) lactose (USP, Hawkins), and (3) silica dioxide (Sipernat 50S, Degussa) and dried using lyophilization. Preparation procedures include (A) mixing ingredients (75 and 90% Zn-DTPA, 1 g total each) into 10 ml DI water and adjusting pH with NaOH, (B) freezing at −20 C, (C) lyophilizing overnight (shelves at room temp), and (D) measuring the moisture uptake (weight change) at room temperature (20-25° C.) and humidity (40-55%) at 1 month."}, "[3]": {"experiment": "in vivo pharmacokinetics of taurine formulations in rats", "conditions": "rat, oral, read-out: bioavailability (BA)"}}}
{"smiles": "NC(=O)N1c2ccccc2CC(=O)c2ccccc21", "note": "[Oxcarbazepine]", "values": [{"measurement": "particle size", "setting": "[1]; Pass 1", "result": 2250, "unit": "nm"}, {"measurement": "particle size", "setting": "[1]; Pass 2", "result": 524, "unit": "nm"}, {"measurement": "particle size", "setting": "[1]; Pass 3", "result": 400, "unit": "nm"}, {"measurement": "particle size", "setting": "[1]; Pass 4", "result": 264, "unit": "nm"}]}
{"smiles": "O=C([O-])CN(CCN(CC(=O)[O-])CC(=O)[O-])CCN(CC(=O)[O-])CC(=O)[O-].[Na+].[Na+].[Na+].[Zn+2]", "note": "[Zn-DTPA, trisodium zinc diethylenetriaminepentaacetate]", "values": [{"measurement": "moisture uptake", "setting": "[2]", "result": "> 10", "unit": "%"}]}
{"smiles": "NCCS(=O)(=O)O", "note": "[unformulated taurine, Taurine]", "values": [{"measurement": "bioavailability", "setting": "[3]", "result": 18, "unit": "%"}]}
